Experimental data published in patent US20160286797A1, “Herbicidal Agents Containing Aclonifen” (BAYER CROPSCIENCE AKTIENGESELLSCHAFT, priority 2013, published 2016).

Assays:
[1] = system: Lolium spp. resistant to HRAC group A; test: Greenhouse experiment, post-emergence treatment of ryegrass biotype resistant to HRAC group A; type: in vivo; details: post-emergence (PO, BBCH 11), about 3 weeks after application
Description: (§1) In the standard design of the test, seeds of various broad-leaved weed and weed grass biotypes (origins) were sown in a 8-13 cm diameter pot filled with natural soil of a standard field soil (loamy silt; non-sterile) and covered with a covering soil layer of about 1 cm. The pots were then cultivated in a greenhouse (12-16 h light, temperature day 20-22° C., night 15-18° C.) until the time of application. The pots were treated on a laboratory track sprayer with spray liquors comprising the compositions according to the invention, mixtures of the prior art or components used individually. […]
(§2) About 3 weeks after the application, the soil action or/and foliar action was assessed visually according to a scale of 0-100% in comparison to an untreated comparative group: 0%=no noticable effect compared to the untreated comparative group; 100%=full effect compared to the untreated comparative group. […]
(§3) Insofar as herbicidal effects of the compositions according to the invention compared to mixtures of the prior art or compared to components applied individually against economically important mono- and dicotyledonous harmful plants were the center of attention, the synergistic herbicidal activities were calculated using Colby's formula (cf. S. R. Colby; Weeds 15 (1967), 20-22): […]
(§4) Δ=difference (%) of the measured value (%) to the expected value (%) (measured value minus expected value). […]

[2] = system: Lolium spp. resistant to HRAC group B; test: Greenhouse experiment, post-emergence treatment of ryegrass biotype resistant to HRAC group B; type: in vivo; details: post-emergence (PO, BBCH 11), about 3 weeks after application
Description: as §1, §2, §3, §4

Row | SMILES | effect (measured value, visual scale 0-100% vs untreated) ([1]; 225 g of AS/ha) [%] | effect (measured value, visual scale 0-100% vs untreated) ([2]; 225 g of AS/ha) [%] | effect (measured value, visual scale 0-100% vs untreated) ([1]; 30 g of AS/ha) [%] | effect (measured value, visual scale 0-100% vs untreated) ([2]; 30 g of AS/ha) [%]
1 | Nc1c([N+](=O)[O-])ccc(Oc2ccccc2)c1Cl [(A) aclonifen, 2-chloro-6-nitro-3-phenoxybenzenamine] | 25 | 50 |  | 
2 | O=C(Nc1ccc(F)cc1F)c1cccnc1Oc1cccc(C(F)(F)F)c1 [(B) diflufenican, N-(2,4-difluorophenyl)-2-[3-(trifluoromethyl)phenoxy]-3-pyridinecarboxamide] |  |  | 10 | 5
